Source: patent publication US20160058304A1, “SYSTEM AND METHOD FOR VESSEL ARCHITECTURAL IMAGING” (priority 2013, published 2016)

Columns and labels:
recurrent glioblastomas [1] = assay: Phase II clinical trial of cediranib in recurrent glioblastoma, retrospective VAI (MRI) analysis; format: in vivo, human
Text: The study was approved by the institutional review board and informed consent was obtained from all subjects. Subject data included 13 females and 17 males diagnosed with a recurrent glioblastoma, average age 52 years, range 20-78 years. After study termination, nine subjects received one subsequent cycle of salvage chemotherapy, eight subjects received two cycles, one subject received three cycles, two subjects had undisclosed information on salvage chemotherapy and one subject received stereotactic radiosurgery.
Baseline MRI examinations were acquired prior to therapy onset (days −5 and −1), and then repeated on days 1, 28, 56 and 112 after cediranib (AstraZeneca Pharmaceuticals) anti-angiogenic therapy onset or until disease progression according to the Macdonald criteria. All imaging were performed on a 3 Tesla Magnetom Trio MRI system (Siemens Medical Solutions) as follows:
4. Dynamic susceptibility contrast (DSC) perfusion images. Axial dual-echo echo-planar images with repetition-time 1.33 s, echo-times 34 ms and 103 ms, slice-thickness 5 mm, inter-slice distance 2.5 mm, in-plane resolution 1.70:1.70 mm, matrix size 128:128, 10 slices and 120 volumes. After approximately 85 s of imaging, a 0.2 mmol kg−1 dose of Gd-DTPA was injected at 5 cc s−1.
We obtained relaxation rate curves for VAI analysis, perfusion values, blood volumes and mean transit times using established tracer kinetic models on the DSC images, corrected for contrast agent leakage (from blood-brain-barrier breakdown or resection) and fitted to a gammavariate curve for better visualization of vessel vortex effects. It has been speculated that contrast agent leakage is the reason for the clockwise vortex effect. […] Here, the pre-dose of Gd-DTPA during DCE imaging saturated potential leaky tumor tissue in the DSC images thereby minimizing the influence of leakage-induced T1-shortening effects. Relaxation rate curves not suited for analysis, conveying highly fluctuating time-courses from partial volume effects, voxel shifts and physiological pulsations were excluded from further analysis. Across all 30 subjects, an average of 78.21 percent±12.78 percent (standard deviation) of all tumor voxels met the inclusion criteria. To account for potential global systemic effects from hypertension, tumor relaxation rate curves were scaled with corresponding slice-specific mean, normal-tissue reference curves. In all figures showing vessel vortex curves, the tails of the vortex curves have been cut short to better visualize vortex direction. VAI analysis was performed using custom-made software in Matlab and traditional MRI was analyzed in nordicICE (NordicNeuroLab AS).
A subject was assumed to have an increase (decrease) in voxels with a clockwise vortex direction if the clockwise- to counter-clockwise ratio was higher (lower) than the 95 percent confidence interval of the population arithmetic mean for two consecutive imaging time points. […] Differences in VAI parameters during therapy were assessed using pairwise Wilcoxons Signed Rank test. Differences in tumor volumes, vessel caliber, permeability, perfusion and mean transit times were assessed using Mann-Whitney tests. Associations between changes in vessel vortex direction ratios and progression-free survival and overall survival were assessed using multinomial logistic regression, Kaplan-Meier survival analysis and Cox regression after adjustments for age, extent of resection, neurological performance, salvage chemotherapy and stereotactic radiosurgery after study termination as well as changes in permeability (Ktrans), T1-weighted contrast-enhanced tumor volume and T2-weighted FLAIR tumor volume prior to, and during, anti-angiogenic therapy. For all tests, P=0.05 was considered significant (with Holm-Bonferroni correction for multiple comparisons) and pixel values below a 5 percent percentile and above a 95 percent percentile were removed prior to analysis to reduce the influence of outliers. […]

recurrent glioblastomas [2] = details: background statement on cediranib trial; cited from earlier work

SMILES: COc1cc2c(Oc3ccc4[nH]c(C)cc4c3F)ncnc2cc1OCCCN1CCCC1 [cediranib]
- Relative number of image voxels with a clockwise vortex direction in the tumor after therapy onset (recurrent glioblastomas [1]; 30 subjects collectively, pair-wise Wilcoxons Signed Ranks test P<0.05): significant increase
- Median overall survival, nonresponders (recurrent glioblastomas [1]; non-responders = relative decrease in image voxels with clockwise vortex direction, recurrent glioblastoma): 146 days
- Median overall survival, non-responding patients (recurrent glioblastomas [1]; non-responders with stable or reduced perfusion, P<0.001): 169 days
- Median overall survival, responding subjects (recurrent glioblastomas [1]; responders = relative increase in image voxels with clockwise vortex direction at two consecutive imaging time points, recurrent glioblastoma): 341 days
- Longer survival of responding vs non-responding patients (recurrent glioblastomas [1]; responders by increased perfusion vs non-responders): approximately 6 months
- Shunt index values at days 1 and 28 (recurrent glioblastomas [1]; responders by vascular normalization compared to non-responders, P<0.05): reduced
- Median overall survival, responding patients (recurrent glioblastomas [1]; responders identified by increased perfusion (vascular normalization), P<0.001): 348 days
- Contrast enhanced and FLAIR tumor volumes at day 28 (recurrent glioblastomas [1]; responders vs non-responders, Mann-Whitney P<0.05): significant reductions
- Whole-tumor vessel calibers compared to pre-treatment (recurrent glioblastomas [1]; responding subjects, P<0.01): significant reductions
- Longer survival of patients whose tumor perfusion increased during treatment (recurrent glioblastomas [2]): approximately 6 months
